From paper PMC10424441, “Macrophage targeted polymeric curcumin nanoparticles limit intracellular survival of Mycobacterium tuberculosis through induction of autophagy and augment anti-TB activity of isoniazid in RAW 264.7 macrophages” (Frontiers in Immunology, 2023)
Like-named read-outs stand apart in the source and are kept apart here.

What was measured:
[1] = system: MTB H37Rv; experiment: Macrophage infection and CFU assay (intracellular survival in RAW 264.7); format: cell-based, Mycobacterium tuberculosis; details: for Percent survival of MTB (percentage of control): adjunctive action experiment, dose not given
[2] = system: MDR clinical isolate of MTB, strain-1; format: cell-based, Mycobacterium tuberculosis; details: 10μM and 20μM, 48 and 72h
[3] = system: Caspase-3, cleaved caspase-3, cleaved PARP, Bax and Bcl-2 in RAW cells with or without MTB infection; experiment: Western blot of pro and anti-apoptotic proteins; format: cell-based, Murine; details: 10μM and 20μM
Protocol: (§1) Cells were harvested, washed thrice with 1X cold PBS and lysed in RIPA lysis buffer containing 1% protease inhibitor cocktail (Sigma) and 3% phosphatase inhibitor cocktail (Sigma). Total protein concentration in the cell lysate was estimated by Bradford reagent (Sigma). Samples containing equal amounts of protein (80μg/well) were run on 10% SDS PAGE followed by electro transfer on nitrocellulose membrane. Membranes were blocked with blocking buffer (5% w/v skimmed milk in 1X TBST) for 30 minutes followed by incubation with respective antibodies for 4 h at room temperature. Further, membranes were washed thrice with 1xTBST for 15 minutes and incubated appropriate secondary antibody HRP conjugate for 2 h and blots were developed with Enhanced Chemiluminescence kit (Roche) according to manufacturer’s protocol. Densitometric analysis was performed using ImageJ software.

[4] = Oral pharmacokinetics study; details: 50 mg/kg
[5] = system: LC3-I to LC3-II conversion and p62 degradation in MTB H37Rv infected RAW cells; experiment: Western blot of autophagy markers, MTB infected cells; format: cell-based, Murine; details: 10μM and 20μM, MTB H37Rv infected RAW macrophages
Protocol: as §1

[6] = system: MDR clinical isolate of MTB, strain-2; format: cell-based, Mycobacterium tuberculosis; details: 10μM and 20μM, 48 and 72h
[7] = system: LC3-I to LC3-II conversion and p62 degradation in RAW 264.7 cells; experiment: Western blot of autophagy markers, uninfected cells; format: cell-based, Murine; details: 10μM and 20μM, 24h
Protocol: as §1

[8] = system: GFP-MTB H37Rv infected RAW 264.7 cells; experiment: Confocal microscopy of phagosome lysosome fusion; format: cell-based, Murine; details: 10μM and 20μM, 48h, MOI 5
Protocol: RAW 264.7 cells (5 x 10^5 cells/ml) were seeded on sterile coverslips in 6-well plates and incubated at 37°C for overnight in CO2 incubator. Next day cells were infected with GFP-MTB H37Rv at MOI 5 and treated with CMN for 48h. Lysotracker Red (Thermo) was added to each well at concentration of 70nM for 3h prior to the end of incubation. Coverslips were washed twice with sterile 1XPBS and fixed with 4% para formaldehyde. Cover slips were mounted on glass slides using Prolong® Gold Antifade (Thermo) mounting reagent containing DAPI and images were acquired on Zeiss LSM 510 Meta confocal microscope (Carl Zeiss) equipped with 63X oil immersion lens. Optical sections with Z-stack were taken to evaluate colocalization and images were deconvolved.

NNC(=O)c1ccncc1 [INH, isoniazid]
Percent survival of MTB (percentage of control) ([1]; 48h of treatment): 35.1 ± 2.8%
Percent survival of MTB (percentage of control) ([1]; 72h of treatment): 22.9 ± 4.5%

COc1cc(C=CC(=O)CC(=O)C=Cc2ccc(O)c(OC)c2)ccc1O [CMN, 1,7-bis (4-hydroxy-3-methoxy-phenyl) hepta-1,6-diene-3,5-dione]
Percent survival [2]: inhibited the percent survival
Percent survival ([2]; treatment with 3-MA): increase in the percent survival that was comparable to untreated controls
Expression of anti-apoptotic protein Bcl-2 ([3]; 24h, RAW cells with or without MTB infection): downregulation
Expression of pro apoptotic proteins cleaved caspase-3, cleaved PARP and Bax ([3]; 24h post treatment, compared to untreated cells): upregulated
AUC(0-inf) ([4]; BALB/c, mouse, in vivo, po): 170 ng·h/mL
AUC(0-t) ([4]; BALB/c, mouse, in vivo, po): 119 ng·h/mL
Cmax ([4]; BALB/c, mouse, in vivo, po): 45.2 ng/mL
MRT inf ([4]; BALB/c, mouse, in vivo, po): 5.07 h
Tmax ([4]; BALB/c, mouse, in vivo, po): 0.25 h
half-life ([4]; BALB/c, mouse, in vivo, po): 3.66 h
k el ([4]; BALB/c, mouse, in vivo, po): 5.28e-05 s⁻¹
Time up to which CMN was detected in plasma after administration ([4]; oral, BALB/c mice): up to 8 h
Autophagy induction (LC3-I to LC3-II conversion and p62 degradation) [5]: autophagy induction in MTB infected cells after CMN treatment
Percent survival [6]: inhibited the percent survival
Percent survival ([6]; treatment with 3-MA): increase in the percent survival that was comparable to untreated controls
Conversion of LC3-I to LC3-II (immunoblotting) [7]: conversion of LC3-I to II at 10μM and 20μM dose
Degradation of p62 (immunoblotting) [7]: p62 degradation at 10μM and 20μM dose
Percent survival (percentage of control) ([1]; 10μM, 48h, in presence of autophagy inhibitor 3-MA): 87.1 ± 6.6%
Percent survival (percentage of control) ([1]; 10μM, 48h post infection, RAW 264.7, MOI 5): 57 ± 4.6%
Percent survival (percentage of control) ([1]; 10μM, 72h, in presence of autophagy inhibitor 3-MA): 80.1 ± 6.8%
Percent survival (percentage of control) ([1]; 10μM, 72h post infection, RAW 264.7, MOI 5): 49.1 ± 7.8%
Percent survival (percentage of control) ([1]; 20μM, 48h, RAW 264.7, MOI 5): 47.7 ± 4.1%
Percent survival (percentage of control) ([1]; 20μM, 48h, in presence of autophagy inhibitor 3-MA): 87.1 ± 4.6%
Percent survival (percentage of control) ([1]; 20μM, 72h, RAW 264.7, MOI 5): 45.6 ± 6.1%
Percent survival (percentage of control) ([1]; 20μM, 72h, in presence of autophagy inhibitor 3-MA): 85.7 ± 8.8%
Percent survival of MTB (percentage of control) ([1]; 48h of treatment): 41.6 ± 3.5%
Percent survival of MTB (percentage of control) ([1]; 72h of treatment): 34.8 ± 3.0%
Phagosome lysosome fusion (co localization of GFP and Lysotracker Red) [8]: formation of yellow compartment in both the CMN treatment groups after 48h
